Test system: Bidens pilosa
Test: Post-emergence herbicidal activity, weed control efficacy trials
Assay type: in vivo
Details: 7 DAA
Procedure: Methodology: Trials were conducted to evaluate the efficacy of the combinations comprising L-glufosinate ammonium and additional herbicides on Bidens pilosa weed.
The soil used was sandy clay loam-sand: 68.0%; silt: 8.0%; clay: 24.0%.
All treatments were in 3 replications per treatment with a spray volume of about 150 L/ha.
Efficacy Evaluation: The expected efficacy of the combination comprising L-glufosinate ammonium and additional herbicides was calculated using the well-established Colby method.
In the Colby method, the expected (or predicted) response of a combination of herbicides is calculated by taking the product of the observed response for each individual component of the combination when applied alone, divided by 100, and subtracting this value from the sum of the observed response for each component when applied alone. An unexpected enhancement in efficacy of the combination is then determined by comparing the observed response of the combination to the expected (or predicted) response as calculated from the observed response of each individual component alone. If the observed response of the combination is greater than the expected (or predicted) response, or stated conversely, if the difference between the observed and expected response is greater than zero, then the combination is said to be synergistic or unexpectedly effective (Colby, S. R., Weeds, 1967(15), p. 20-22). The Colby method requires only a single dose of each herbicide applied alone and the mixture of both doses. The formula used to calculate the expected efficacy (EE) which was compared with the observed efficacy (OE) to determine the efficacy of the present disclosure is explained hereinbelow: […]

With `Cc1ccc2c(c1)[C@H](Nc1nc(N)nc(C(C)F)n1)[C@@H](C)C2` (stereo partly drawn) [Indaziflam] the “Observed efficacy (%) of Indaziflam (50 g a.i./ha)” value (50 g a.i./ha) was 90%.

`CP(=O)(O)CC[C@H](N)C(=O)O.N` [L-glufosinate ammonium] was tested, and the “Observed efficacy (%) of L-glufosinate ammonium (150 g a.i./ha)” value (“Observed efficacy (%) … (150 g a.i./ha)” for short) (Example 1) was 95%, the “Observed efficacy (%) … (150 g a.i./ha)” value (Example 2) was 95% and the “Observed efficacy (%) … (150 g a.i./ha)” value (Example 3) was 95%.

In the case of `CCc1cccc(C)c1N(COC(C)C)C(=O)CCl` [Propisochlor], the “Observed efficacy (%) of Propisochlor (540 g a.i./ha)” value (540 g a.i./ha) is reported as 5%.

`Cn1nc(C(F)(F)F)c(CS(=O)(=O)C2=NOC(C)(C)C2)c1OC(F)F` [pyroxasulfone, Pyroxasulfone] was tested, and the “Observed efficacy (%) of pyroxasulfone (75 g a.i./ha)” value (75 g a.i./ha) was 5%.
